Results reported in patent US20110263677A1, “GOS2 MODULATORS IN THE TREATMENT OF ACNE, OF SEBORRHOEIC DERMATITIS OR OF HYPERSEBORRHOEA” (Galderma Research & Development, priority 2008, published 2011).

Experiments:
GOS2 [1] = assay: Real-time PCR gene expression in rat epidermal split containing sebaceous glands after topical treatment: GOS2; type: in vivo; settings: topical administration, 0.3% in acetone, 96 hours
Protocol: (§1) Strain: OFA-SD (SPF Caw),
(§2) Number per batch: 40 (8 animals per group) Treatment: Route of administration: topical
(§3) Compound/batch: PPARgamma agonist (rosiglitazone)
(§4) Method of evaluation: The animals are weighed at the beginning and at the end of the study. Skin biopsies are taken (6 samples of skin excised per rat) in order to analyse the expression of the genes (RNA extraction, reverse transcriptase and real-time PCR). The samples are stored overnight at 4° C. before incubation in 1M sodium bromide (NaBr) for 2 hours at 37° C. After incubation, the samples are separated into epidermis or dermis. The epidermal samples are stored at […]. Under these conditions, the sebaceous glands are in the epidermal split. PCRs are carried out, beginning with the cDNAs originating from the epidermal splits containing sebaceous glands from control rats or rats treated with the PPARγ agonist: the mRNA is extracted using a column and quantified. The quality of mRNAs is measured and is represented by the 18S/28S ratio. The results are standardized with respect to 18S, expressed as relative induction versus untreated animals (carrier group). The statistical analysis is obtained using internal software based on a modified Monte Carlo statistical analysis.

PPARG (reference gene) = assay: Real-time PCR gene expression in rat epidermal split containing sebaceous glands after topical treatment: PPARG; type: in vivo; settings: topical administration, 0.3% in acetone, 96 hours
Protocol: as §1, §2, §3, §4

PPARG = assay: as above; type: in vivo; settings: topical administration, 0.3% in acetone, 96 hours, versus carrier group
Protocol: as §1, §2, §3, §4

HPRT1 (standardizer 1) = assay: Real-time PCR gene expression in rat epidermal split containing sebaceous glands after topical treatment: HPRT1; type: in vivo; settings: topical administration, 0.3% in acetone, 96 hours
Protocol: as §1, §2, §3, §4

ACTB (standardizer 2) = assay: Real-time PCR gene expression in rat epidermal split containing sebaceous glands after topical treatment: ACTB; type: in vivo; settings: topical administration, 0.3% in acetone, 96 hours
Protocol: as §1, §2, §3, §4

GOS2 [2] = settings: mouse liver; Zandbergen et al., 2005; cited from earlier work

Row | Compound | Variation versus carrier after standardization (ΔΔCt) (GOS2 [1]) | Relative induction (GOS2 [1]; versus carrier group) | Variation versus carrier after standardization (ΔΔCt) (PPARG (reference gene)) | Relative induction (PPARG) | Variation versus carrier after standardization (ΔΔCt) (HPRT1 (standardizer 1)) | Relative induction (HPRT1 (standardizer 1); versus carrier group) | Variation versus carrier after standardization (ΔΔCt) (ACTB (standardizer 2)) | Relative induction (ACTB (standardizer 2); versus carrier group) | expression of GOS2 (marker for PPARalpha) (GOS2 [2])
1 | COCCOCOc1ccc2cc(C(=O)N(C)Cc3cccc(-c4ccc(CC5SC(=O)NC5=O)cc4)c3)ccc2c1 (stereo not drawn) [PPARgamma agonist, 6-(2-methoxyethoxy-methoxy)naphthalene-2-carboxylic acid [4′-(2,4-dioxothiazolidin-5-ylmethyl)biphenyl-3-ylmethyl]methylamide] | 2.36 | 5.24 | 0.72 | 1.65 | −0.07 | −1.05 | 0.23 | 1.18 | –
2 | Cc1cccc(Nc2cc(Cl)nc(SCC(=O)O)n2)c1C [Wy14643] | – | – | – | – | – | – | – | – | induced
